One experiment addresses Tubulin (Homo sapiens) (UniProt P68371+Q9H4B7+P0DPH7+P68366+Q13509+Q71U36+P04350+Q3ZCM7+P07437+P68363+Q9BQE3+Q6PEY2+Q13885+Q9BVA1+Q9BUF5). Put plainly: Inhibition of tubulin polymerization (unknown origin) at 10 uM incubated for 0.5 hrs in presence of GTP by spectrophotometer analysis relative to control. In kind it is protein-complex assay.
Another experiment has as its target Tubulin. Put plainly: Inhibition of tubulin polymerization (unknown origin) incubated for 0.5 hrs in presence of GTP by spectrophotometer analysis. The format is protein-complex assay, Homo sapiens.
The test system of a further experiment is T47D. Put plainly: Antiproliferative activity against human T47D cells assessed as inhibition of cell growth measured after 48 hrs by MTT assay. The format is functional, cell-based. (In general: Tetrazolium dyes change colour on reduction, which living cells bring about.)
The next experiment concerns A549. The experiment can be described thus: Antiproliferative activity against human A549 cells assessed as inhibition of cell growth measured after 48 hrs by MTT assay. The format is functional, cell-based. To be noted: A549, 48 h.

Structures are written as SMILES.

What is called inhibition is the relative decrease from the control value, in per cent. As a reminder, the IC50 is the midpoint of a concentration-inhibition curve. In the case of `COc1ccc(C2C(C(C)=O)=C(C)N=C3N=C(c4cc(OC)c(OC)c(OC)c4)NN32)cc1[N+](=O)[O-]` (configuration not stated), the inhibition on Tubulin (Homo sapiens) worked out at 56%. Further, the IC50 at Tubulin worked out at 9900 nM.
As for `COc1ccc(Nc2nc3nccc(-c4cc(OC)c(OC)c(OC)c4)n3n2)cc1N`, at Tubulin (Homo sapiens), the inhibition was 78%.
As to `COc1ccc(Nc2nc3nccc(-c4cc(OC)c(OC)c(OC)c4)n3n2)cc1O`, the inhibition at Tubulin (Homo sapiens) amounted to 43%. Further, the IC50 at Tubulin is 4900 nM.
Regarding `COc1ccc(/C=C\c2cc(OC)c(OC)c(OC)c2)cc1O` [COMBRETASTATIN A4], the figures for the IC50 in the experiment with T47D and with A549 were 21 nM and 27 nM, respectively.

Values taken from ChEMBL document CHEMBL5247637, “Rational design, synthesis and biological evaluation of novel 2-(substituted amino)-[1,2,4]triazolo[1,5-a]pyrimidines as novel tubulin polymerization inhibitors” (Eur J Med Chem, 2022).
